Measurements published in US20250327140A1, “A METHOD OF DETERMINING THE DOSE OF PSYCHEDELICS” (priority 2022, published 2025).

What was measured:
ABCF1 [1] = assay: qPCR of ABCF1 transcription in macrophage cell line RAW264.7, dose response with psychedelics; type: cell-based, murine; settings: RAW264.7, 10 nM, 100 nM, 500 nM, 2 hours post treatment
Procedure: • 1. Macrophage cell line RAW264.7 (ATCC) were grown to 80% confluency in growth media (DMEM+10% FBS+glutamine). • 2. Dilutions of the drugs were made at desired final concentrations for a Dose response experiment. The concentrations' used for this experiment are: 10 nM, 100 nM, 500 nM for Psilocin, Psylocibin, 4-Acetoxy-N, N-dimthyltryptamine, O-Acetyl Psilocin Fumerate, and 4-acetoxyindole. • 3. Untreated cells were used as negative control and Escitalopram at 0.3 mM was used as a positive control to activate ABCF1 expression for all the experiments. Analysis by qPCR:
• 1. 2 hours post treatment with drugs, the reaction was stopped by removing the media with the drug. Cells were then collected and RNA was isolated from these. • 2. After checking the quality of the RNA, cDNA was generated and qPCR was run with ABCF1 primers as the target gene and GAPDH as the house keeping gene. • 3. Normalized against the expression level of GAPDH, the fold change expression level of ABCF1 was calculated and tabulated for all treatment conditions.

[2] = test system: ABCF1 promoter (eGFP reporter); assay: DC2.4 cells transfected with ABCF1-GFP reporter construct, drug screening by fluorescence; type: cell-based; settings: for induction of ABCF1-EGFP-IRES (FIG. 11): DC2.4 cells with ABCF1 GFP construct
Text: Cells for use in a high-throughput cell-based screening assay to screen for drugs and genes that stimulate ABCF1 expression were created. In particular, the cells comprise a construct comprising the ABCF1 promoter linked to the sequence encoding eGFP. In the assay, drugs/compositions may be screened for modulating expression of ABCF1 by measuring fluorescence. • 1. DC2.4 cell line was used for the ABCF1-GFP vector (FIG. 7) transfection. DC 2.4 cell line was used as these cells have low endogenous ABCF1 expression. • 2. After 3 days, based on the fluorescent signal, those transfected cells were single cell sorted using cell sorter, compared with DC2.4 cell line without transfection as a negative control. (Those cells with some fluorescent signals were transfected successfully as expected) • 3. Those single cells were collected in a 96 well plate and grown around 2 weeks using DMEM+10% FBS+1% PS, and 12 colonies were picked. • 4. Expended 12 colonies into 24 well plate to grow continuously around 2 weeks with DMEM+10% FBS+1% PS+[…] Hygromycin (selection antibiotics which inserted in the vector) to keep the majority of cells which containing the vector. • 5. 5 colonies were growing well and checked the colonies ABCF1 expression level (checked the GFP reporter in between negative control and positive control (50 uM and 100 μM) to see which colonies is the best to be drug screening cell). • See FIGS. 8 to 11.

ABCF1 [3] = assay: real time RT-PCR specific for ABCF1 and IL-4 in RAW macrophages incubated with Escitalopram; type: cell-based, murine; settings: 0.3 mM, 1 hour
Procedure: RAW macrophages were plated at 1×10^5 cells/well and cultured for 2 days. The cells were incubated with 0.3 mM Escitalopram for 1 hour, and then harvested for total RNA, which was extracted for real time RT-PCR specific for ABCF1 and IL-4. CT values were normalized with CT value for the housekeeping gene from the DMSO control.

| SMILES | ABCF1 transcription (fold change vs GAPDH) (ABCF1 [1]) | induction of ABCF1-EGFP-IRES (FIG. 11) [2] | ABCF1 upregulation (FIG. 10) ([2]; after 1 hour drug treatment) | difference in ABCF1 and IL-4 expression after drug treatment (macrophage polarization) (ABCF1 [3]; consistent in 3 separate experiments) | ABCF1 induction in a macrophage cell line (ABCF1 [3]; real time RT-PCR) |
| --- | --- | --- | --- | --- | --- |
| CN(C)CCc1c[nH]c2cccc(O)c12 [psylocin, Psilocin] | upregulate |  |  |  |  |
| CC(=O)Oc1cccc2[nH]ccc12 [AOI, 4-acetoxyindole] |  | induction | upregulates |  |  |
| CN(C)CCC[C@@]1(c2ccc(F)cc2)OCc2cc(C#N)ccc21 [Escitalopram] |  | induction |  | consistent with polarization towards an M2-like phenotype | Induces |
